Source: ChEMBL document CHEMBL5724914, “Linking interpersonal differences in gut microbiota composition and drug biotransformation activity” (2024)

Assays:
[1] = The drug is tested on Z-021 corresponding to metagenome with ENA study accession number: PRJEB37062 and ENA sample accession number: ERS12561820 for biotransformation under anaerobic condition. The drug concentrations were measured over 9 timepoints collected between 0 and 24 hours of incubation by liquid-chromatography-coupled mass spectrometry (LC–MS); conditions: 2 µM
[2] = human gut metagenome, 24 h, 2 µM
[3] = The drug is tested on Z-003 corresponding to pig gut metagenome with ENA study accession number: PRJEB37062 and ENA sample accession number: ERS12561803 for biotransformation under anaerobic condition. The drug concentrations were measured over 9 timepoints collected between 0 and 24 hours of incubation by liquid-chromatography-coupled mass spectrometry (LC–MS); conditions: 2 µM
[4] = The drug is tested on WLS-039 corresponding to human gut metagenome with ENA study accession number: PRJEB37062 and ENA sample accession number: ERS12561746 for biotransformation under anaerobic condition. The drug concentrations were measured over 9 timepoints collected between 0 and 24 hours of incubation by liquid-chromatography-coupled mass spectrometry (LC–MS); conditions: 2 µM
[5] = The drug is tested on WLS-240 corresponding to human gut metagenome with ENA study accession number: PRJEB37062 and ENA sample accession number: ERS12561773 for biotransformation under anaerobic condition. The drug concentrations were measured over 9 timepoints collected between 0 and 24 hours of incubation by liquid-chromatography-coupled mass spectrometry (LC–MS); conditions: 2 µM
[6] = human gut metagenome, 24 h, 2 µM; remark: listed apart in the source
[7] = human gut metagenome, 24 h, 2 µM; remark: listed apart in the source
[8] = The drug is tested on WLS-350 corresponding to human gut metagenome with ENA study accession number: PRJEB37062 and ENA sample accession number: ERS12561789 for biotransformation under anaerobic condition. The drug concentrations were measured over 9 timepoints collected between 0 and 24 hours of incubation by liquid-chromatography-coupled mass spectrometry (LC–MS); conditions: 2 µM
[9] = The drug is tested on WLS-038 corresponding to human gut metagenome with ENA study accession number: PRJEB37062 and ENA sample accession number: ERS12561745 for biotransformation under anaerobic condition. The drug concentrations were measured over 9 timepoints collected between 0 and 24 hours of incubation by liquid-chromatography-coupled mass spectrometry (LC–MS); conditions: 2 µM
[10] = The drug is tested on WLS-077 corresponding to human gut metagenome with ENA study accession number: PRJEB37062 and ENA sample accession number: ERS12561750 for biotransformation under anaerobic condition. The drug concentrations were measured over 9 timepoints collected between 0 and 24 hours of incubation by liquid-chromatography-coupled mass spectrometry (LC–MS); conditions: 2 µM
[11] = The drug is tested on WLS-069 corresponding to human gut metagenome with ENA study accession number: PRJEB37062 and ENA sample accession number: ERS12561748 for biotransformation under anaerobic condition. The drug concentrations were measured over 9 timepoints collected between 0 and 24 hours of incubation by liquid-chromatography-coupled mass spectrometry (LC–MS); conditions: 2 µM
[12] = The drug is tested on WLS-086 corresponding to human gut metagenome with ENA study accession number: PRJEB37062 and ENA sample accession number: ERS12561752 for biotransformation under anaerobic condition. The drug concentrations were measured over 9 timepoints collected between 0 and 24 hours of incubation by liquid-chromatography-coupled mass spectrometry (LC–MS); conditions: 2 µM
[13] = human gut metagenome, 24 h, 2 µM; remark: listed apart in the source
[14] = human gut metagenome, 24 h, 2 µM; remark: listed apart in the source
[15] = The drug is tested on Z-025 corresponding to rabbit gut metagenome with ENA study accession number: PRJEB37062 and ENA sample accession number: ERS12561824 for biotransformation under anaerobic condition. The drug concentrations were measured over 9 timepoints collected between 0 and 24 hours of incubation by liquid-chromatography-coupled mass spectrometry (LC–MS); conditions: 2 µM
[16] = human gut metagenome, 24 h, 2 µM; remark: listed apart in the source
[17] = The drug is tested on Z-024 corresponding to pig gut metagenome with ENA study accession number: PRJEB37062 and ENA sample accession number: ERS12561823 for biotransformation under anaerobic condition. The drug concentrations were measured over 9 timepoints collected between 0 and 24 hours of incubation by liquid-chromatography-coupled mass spectrometry (LC–MS); conditions: 2 µM
[18] = human gut metagenome, 24 h, 2 µM; remark: listed apart in the source
[19] = The drug is tested on Z-022 corresponding to mouse gut metagenome with ENA study accession number: PRJEB37062 and ENA sample accession number: ERS12561821 for biotransformation under anaerobic condition. The drug concentrations were measured over 9 timepoints collected between 0 and 24 hours of incubation by liquid-chromatography-coupled mass spectrometry (LC–MS); conditions: 2 µM
[20] = human gut metagenome, 24 h, 2 µM; remark: listed apart in the source
Further: call rule not given here.

Structure (SMILES)	Bacterial Biotransformation [1]	Bacterial Biotransformation [2]	Bacterial Biotransformation [3]	Bacterial Biotransformation [4]	Bacterial Biotransformation [5]	Bacterial Biotransformation [6]	Bacterial Biotransformation [7]	Bacterial Biotransformation [8]	Bacterial Biotransformation [9]	Bacterial Biotransformation [10]	Bacterial Biotransformation [11]	Bacterial Biotransformation [12]	Bacterial Biotransformation [13]	Bacterial Biotransformation [14]	Bacterial Biotransformation [15]	Bacterial Biotransformation [16]	Bacterial Biotransformation [17]	Bacterial Biotransformation [18]	Bacterial Biotransformation [19]	Bacterial Biotransformation [20]
CCOC(=O)[C@H](CCc1ccccc1)N[C@@H](C)C(=O)N1[C@H](C(=O)O)C[C@@H]2CCC[C@@H]21	Compound metabolized	Compound metabolized	Compound metabolized	Compound metabolized	Compound metabolized	Compound metabolized	Compound metabolized	Compound metabolized	Compound metabolized	Compound metabolized	Compound metabolized	Compound metabolized	Compound metabolized	Compound metabolized	Compound NOT metabolized	Compound metabolized	Compound metabolized	Compound metabolized	Compound metabolized	Compound metabolized
CCN(CC)CCNC(C(=O)OCCC(C)C)c1ccccc1.Cl.Cl (stereo unspecified)	Compound metabolized	Compound metabolized	Compound metabolized	Compound NOT metabolized	Compound metabolized	Compound metabolized	Compound metabolized	Compound metabolized	Compound NOT metabolized	Compound metabolized	Compound metabolized	Compound metabolized	Compound NOT metabolized	Compound metabolized	Compound NOT metabolized	Compound metabolized	Compound metabolized	Compound metabolized	Compound metabolized	Compound metabolized
CCCC(=O)Nc1ccc(OCC(O)CNC(C)C)c(C(C)=O)c1 (stereo unspecified) [ACEBUTOLOL]	Compound metabolized	Compound metabolized	Compound metabolized	Compound NOT metabolized	Compound metabolized	Compound metabolized	Compound metabolized	Compound metabolized	Compound NOT metabolized	Compound NOT metabolized	Compound metabolized	Compound metabolized	Compound NOT metabolized	Compound metabolized	Compound NOT metabolized	Compound metabolized	Compound NOT metabolized	Compound metabolized	Compound metabolized	Compound metabolized
COc1c2occc2cc2ccc(=O)oc12 [METHOXSALEN]	Compound metabolized	Compound metabolized	Compound metabolized	Compound metabolized	Compound metabolized	Compound metabolized	Compound metabolized	Compound metabolized	Compound metabolized	Compound metabolized	Compound metabolized	Compound metabolized	Compound metabolized	Compound metabolized	Compound metabolized		Compound metabolized	Compound metabolized	Compound NOT metabolized	Compound metabolized
Cc1nc2n(c(=O)c1CCN1CCC(c3noc4cc(F)ccc34)CC1)CCCC2 [RISPERIDONE]	Compound metabolized	Compound metabolized	Compound metabolized	Compound metabolized	Compound metabolized	Compound NOT metabolized	Compound metabolized		Compound metabolized	Compound metabolized	Compound metabolized	Compound metabolized	Compound metabolized	Compound metabolized	Compound metabolized	Compound metabolized	Compound metabolized	Compound metabolized	Compound metabolized	Compound metabolized
Cc1cn([C@H]2C[C@H](N=[N+]=[N-])[C@@H](CO)O2)c(=O)[nH]c1=O [ZIDOVUDINE]	Compound NOT metabolized	Compound NOT metabolized	Compound NOT metabolized		Compound NOT metabolized	Compound NOT metabolized	Compound NOT metabolized	Compound NOT metabolized	Compound NOT metabolized		Compound NOT metabolized	Compound NOT metabolized	Compound NOT metabolized	Compound NOT metabolized	Compound metabolized	Compound NOT metabolized	Compound NOT metabolized	Compound NOT metabolized	Compound metabolized	Compound NOT metabolized
